Patent US10696682B2, “CDK inhibitors” (G1 Therapeutics, Inc., priority 2010, dated 2020)

Biological target: CDK4/cyclinD (Homo sapiens (Human), UniProt P11802)
Assay: CDK4/CyclinD kinase enzymatic assay (Caliper LabChip)
Assay type: biochemical
Conditions: tested as HCl salts, 12-point dose response, at the Km for ATP, three hours
Experimental: Kinase enzymatic reactions were performed in 384-well microplates using a 12-channel Caliper LabChip instrument as a detection device. […] As substrate and product are separated, two peaks of fluorescence are observed. Change in the relative fluorescence intensity of the substrate and product peaks is the parameter measured, reflecting enzyme activity. In the presence of an inhibitor, the ratio between product and substrate is altered. The signal of the product decreases, while the signal of the substrate increases.
Potential inhibitor compounds (as HCl salts) were tested using 12-point dose response curves in […] at the Km for ATP. The IC50 of each compound was determined using GraphPad Prism.

Sequence of CDK4/cyclinD (P11802 whole entry, species assumed): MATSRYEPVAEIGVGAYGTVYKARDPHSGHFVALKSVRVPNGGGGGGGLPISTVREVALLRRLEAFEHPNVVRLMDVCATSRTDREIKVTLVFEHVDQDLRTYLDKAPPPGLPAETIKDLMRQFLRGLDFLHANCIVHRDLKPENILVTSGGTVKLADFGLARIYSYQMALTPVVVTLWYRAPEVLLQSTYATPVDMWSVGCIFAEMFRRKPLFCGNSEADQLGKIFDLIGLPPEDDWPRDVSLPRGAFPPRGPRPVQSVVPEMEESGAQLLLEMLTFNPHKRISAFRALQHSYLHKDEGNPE
Sequence of CDK4/cyclinD (P24385 whole entry partner, species assumed): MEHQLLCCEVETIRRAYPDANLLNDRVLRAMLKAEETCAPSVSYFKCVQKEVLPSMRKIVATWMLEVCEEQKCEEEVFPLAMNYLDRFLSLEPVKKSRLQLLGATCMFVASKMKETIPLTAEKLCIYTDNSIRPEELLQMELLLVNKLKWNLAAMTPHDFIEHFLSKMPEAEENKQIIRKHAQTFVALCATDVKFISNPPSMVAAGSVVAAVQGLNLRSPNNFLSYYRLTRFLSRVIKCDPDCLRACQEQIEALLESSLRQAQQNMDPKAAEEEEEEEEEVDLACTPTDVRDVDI

- IC50: 1.05 µM
Compound: O=C1NCCn2c1cc1cnc(Nc3ccc(N4CCNCC4)cn3)nc12 [Compound 3]
